Legend:
Experiment in all cases: area under concentration-response curve (viability) (AUC (a.u.)); higher = less active
Conditions in all cases: 48 h
CU-ACC1 = system: CU-ACC1
In short: (§1)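 Library compounds were tested at 11 concentrations against three adrenocortical carcinoma cell lines in 1,536-well plates. CellTiter-Glo luminescence was read after 48 h and normalised per plate to vehicle and empty-well controls. Only inhibitory or non-responding curve classes from fitted concentration-response curves contributed AC50 and area under the curve.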

CU-ACC2 = system: CU-ACC2
In short: as §1

NCI-H295R = system: NCI-H295R
In short: as §1

| Structure (SMILES) | area under concentration-response curve (CU-ACC1) | area under concentration-response curve (CU-ACC2) | area under concentration-response curve (NCI-H295R) |
| --- | --- | --- | --- |
| CN(C)/N=N/c1nc[nH]c1C(N)=O | 514 | 547 | 481 |
| Cc1cnc(NC(=O)C2=C(O)c3ccccc3S(=O)(=O)N2C)s1 | 393 | 409 | 396 |
| Cc1cc(-c2cnn3c(NC[C@H]4C[C@@](C)(O)C4)cc(Oc4cccnc4)nc23)ccc1C(=O)NC1CC1 | 626 | 775 | 659 |
| Cc1ccc(-c2nc(N)nc3c2nnn3Cc2cccc(CO[C@H]3CCOC3)n2)o1 | 520 | 569 | 561 |
| O=C1NC(=O)/C(=C/c2ccc3c(c2)OC(F)(F)O3)S1 | 512 | 599 | 537 |
| CCC[C@@H]1C[C@@H](C(=O)N[C@@H]([C@H]2O[C@H](SC)[C@H](O)[C@@H](O)[C@H]2O)[C@H](C)Cl)N(C)C1 | 527 | 458 | 541 |
| c1cc(-c2sc(-c3ccncc3)c(-c3ccncc3)c2-c2ccncc2)ccn1 | 549 | 544 | 565 |
| Cc1[nH]c(/C=C2\C(=O)Nc3ccc([S+](=O)([O-])Cc4c(Cl)cccc4Cl)cc32)c(C)c1C(=O)N1CCC[C@@H]1CN1CCCC1 | 334 | 351 | 376 |
| COc1cc([C@@H](CC(=O)O)c2ccc(C)c(CN3C[C@@H](C)Oc4ccccc4[S+]3(=O)[O-])c2)cc2nnn(C)c12 | 341 | 295 | 348 |
| Clc1ccc2c(N3CCN(CCCN4CCN(c5ccnc6cc(Cl)ccc56)CC4)CC3)ccnc2c1 | 433 | 450 | 451 |
| C/C=C/C(=O)N(CC)c1ccccc1C | 417 | 468 | 441 |
| CC(=O)N1CCC[C@H]1C(=O)N[C@@H](Cc1c[nH]cn1)C(=O)N[C@@H](CO)C(=O)N[C@@H](CS)C(=O)N[C@@H](CC(N)=O)C(N)=O | 382 | 527 | 498 |
| CCOC(=O)[C@H](CCc1ccccc1)N[C@@H](C)C(=O)N1[C@H](C(=O)O)C[C@@H]2CCC[C@@H]21 | 545 | 649 | 595 |
| Nc1cccc(-c2cc3c(Oc4cccc(O)c4)ncnc3[nH]2)c1 | 524 | 534 | 530 |
| C[C@@H](CN1CC(=O)NC(=O)C1)N1CC(=O)NC(=O)C1 | 516 | 588 | 478 |
| CCN1\C(=C(C(=O)NC)/C(=O)C2=C1N=C(C=C2)C#CC(C)(O)COC)N (stereo unspecified) | 482 | 579 | 510 |
| CCNC(=O)C[C@H]1/N=C(/C2=CC=C(Cl)C=C2)C3=CC(=CC=C3[N]4C(=NN=C14)C)OC | 362 | 452 | 455 |
| CC(C)Cn1cnc2c(N)nc3ccccc3c21 | 640 | 683 | 630 |
| Cc1cn[nH]c1 | 492 | 575 | 524 |
| CC(C(=O)O)c1ccc2c(c1)CC(=O)c1ccccc1S2 (stereo unspecified) | 535 | 554 | 497 |
| C[S+](=O)([O-])c1ccc(-c2nnc(/C=C/c3nnc(-c4ccc(C#N)cc4)o3)n2-c2ccccc2Cl)nc1 | 537 | 603 | 524 |
| COc1ccc(CNC(=O)c2cc(-c3cncc(Cl)c3)cnc2-c2ccccn2)nc1OC | 430 | 412 | 407 |
| C[C@@H]1C\C2=C(CCC(=O)C2)/[C@H]3CC[C@@]4(C)[C@@H](CC[C@@]4(O)C#C)[C@H]13 | 560 | 592 | 547 |
| C/C(O)=C(\C#N)C(=O)Nc1ccc(C(F)(F)F)cc1 | 503 | 607 | 524 |

| Structure (SMILES) | area under concentration-response curve (CU-ACC1) | area under concentration-response curve (CU-ACC2) | area under concentration-response curve (NCI-H295R) |
| --- | --- | --- | --- |
| COc1ccc(Oc2cc(NCCC(F)(F)F)c3ncc(-c4ccc(C(=O)NC5CC5)c(C)c4)n3n2)c(F)c1F | 487 | 459 | 501 |
| NC(=O)[C@@H](CC1CC1)[C@@H](CCC(F)(F)F)C(=O)N[C@H]2\N=C(C3=CC=CC=C3)/C4=CC=CC(=C4NC2=O)F | 543 | 573 | 541 |
| O=C(O)CCNc1cc(N2CCc3ccccc3CC2)nc(-c2cccnc2)n1 | 538 | 636 | 533 |
| COc1ccc2[nH]cc(CCNC(C)=O)c2c1 | 592 | 668 | 578 |
| Cc1cnc(Nc2cccc(CN3CCOCC3)c2)nc1Nc1cccc([S+](=O)([O-])NC(C)(C)C)c1 | 453 | 508 | 467 |
| CC(C)OC(=O)/C1=C/N(CC(C)(C)C2=C1[NH]C3=CC=CC=C23)C(=O)C4=CC=C(F)C(=C4)F | 454 | 555 | 529 |
| CC[C@H](CC[C@@H](C)[C@H]1CC[C@H]2[C@@H]3C\C=C/4C[C@@H](O)CC[C@]4(C)[C@H]3CC[C@]12C)C(C)C | 413 | 396 | 421 |
| ClC1=CC=C2OC3=C(\N=C(NC3=O)\[C@@H]4CCCN4)C2=C1 | 410 | 601 | 534 |
| O=C1CC[C@@]2(O)[C@H]3Cc4ccc(O)c5c4[C@@]2(CCN3CC2CC2)[C@H]1O5 | 413 | 623 | 559 |
| C[C@H]1O[C@H]([C@H](O)[C@@H]1O)N2\C=C(F)/C(=O)NC2=O | 559 | 621 | 550 |
| CC(C)C[C@H](NC(=O)[C@@H](O)[C@H](N)Cc1ccccc1)C(=O)O | 459 | 571 | 494 |
| CCN(CC)CCCC(C)Nc1c2ccc(Cl)cc2nc2ccc(OC)cc12.Cl.Cl.O.O (stereo unspecified) | 402 | 561 | 556 |
| N[C@@H](Cc1ccc(O)c(O)c1)C(=O)O | 503 | 612 | 534 |
| CC(C)NCC(O)c1ccc(N[S+](C)(=O)[O-])cc1 (stereo unspecified) | 530 | 624 | 570 |
| Nc1nc(OCc2ccccc2)c2nc[nH]c2n1 | 432 | 479 | 441 |
| CC(C(C)N1CC(=O)NC(=O)C1)N1CC(=O)NC(=O)C1 (stereo unspecified) | 488 | 605 | 538 |
| COC12C(COC(N)=O)\C3=C(/N1CC4C2N4C)C(=O)C(=C(N)/C3=O)\C (stereo unspecified) | 506 | 544 | 507 |
| COc1ccc2[nH]c(C(=O)N3CCC(CC(C)(C)O)CC3)cc2c1 | 484 | 609 | 572 |
| Cc1ccc(-n2c(C)cc(-c3nnc4n3CCCCC4)c2C)cc1 | 575 | 647 | 595 |
| CC(C)(N[S+](=O)([O-])c1ccc2c(Cl)cnc(NC(=N)N)c2c1)C(=O)O | 527 | 609 | 570 |
| C[C@]12CCC3[C@@H](CC[C@H]4NC(=O)\C=C/[C@]34C)[C@@H]1CC[C@@H]2C(=O)NC5=CC(=CC=C5C(F)(F)F)C(F)(F)F (stereo partly specified) | 557 | 645 | 578 |
| CC[S+](=O)([O-])c1ccc2oc(-c3ccc4ccccc4c3)nc2c1 | 538 | 602 | 514 |
| OC(=O)C1=CC=C(NC2=NC3=C(C\N=C(/C4=CC(=CC=C34)Cl)C5=C(F)C=CC=C5F)C=N2)C=C1 | 504 | 559 | 517 |

Source: the supplement of paper PMC10949913
